Data from patent publication US20240018145A1, “[…]-DEPENDENT EN[…] TREATING OR […]” (priority 2020, published 2024).
Where two headings read alike, the source gives them in different places.

Test system: FLU A (PR/8/34)
Test: Flu A Neuraminidase Antiviral Assay
Assay type: cell-based

CN1C(=O)c2c(O)c(=O)ccn2N2C(c3ccccc3)CCCC12 (single isomer, unassigned) [Compound 1A, 7-hydroxy-5-methyl-1-phenyl-1,2,3,4,4a,5-hexahydrodipyrido[1,2-b:2′,1′-f][1,2,4]triazine-6,8-dione]
EC50: > 8100 nM

CN1C(=O)c2c(O)c(=O)ccn2N2C(c3ccccc3)CCCC12 (single isomer, unassigned) [Compound 1B, 7-hydroxy-5-methyl-1-phenyl-1,2,3,4,4a,5-hexahydrodipyrido[1,2-b:2′,1′-f][1,2,4]triazine-6,8-dione]
EC50: 39.6 nM

CN1C(=O)c2c(O)c(=O)ccn2N2C(c3ccc(F)cc3)CCCC12 (single isomer, unassigned) [Compound 2A, 1-(4-fluorophenyl)-7-hydroxy-5-methyl-1,2,3,4,4a,5-hexahydrodipyrido[1,2-b:2′,1′-f][1,2,4]triazine-6,8-dione]
EC50: 109 nM

CN1C(=O)c2c(O)c(=O)ccn2N2C(c3ccc(F)cc3)CCCC12 (single isomer, unassigned) [Compound 2B, 1-(4-fluorophenyl)-7-hydroxy-5-methyl-1,2,3,4,4a,5-hexahydrodipyrido[1,2-b:2′,1′-f][1,2,4]triazine-6,8-dione]
EC50: 5920 nM

CN1C(=O)c2c(O)c(=O)ccn2N2C(c3ccc(Cl)c(F)c3)CCCC12 (single isomer, unassigned) [Compound 3A, 1-(4-chloro-3-fluorophenyl)-7-hydroxy-5-methyl-1,2,3,4,4a,5-hexahydrodipyrido[1,2-b:2′,1′-f][1,2,4]triazine-6,8-dione]
EC50: 1020 nM

CN1C(=O)c2c(O)c(=O)ccn2N2C(c3ccc(Cl)c(F)c3)CCCC12 (single isomer, unassigned) [Compound 3B, 1-(4-chloro-3-fluorophenyl)-7-hydroxy-5-methyl-1,2,3,4,4a,5-hexahydrodipyrido[1,2-b:2′,1′-f][1,2,4]triazine-6,8-dione]
EC50: > 2700 nM

COCCN1C(=O)c2c(O)c(=O)ccn2N2C(c3ccc(F)cc3)CCCC12 (single isomer, unassigned) [Compound 4A, 1-(4-fluorophenyl)-7-hydroxy-5-(2-methoxyethyl)-1,2,3,4,4a,5-hexahydrodipyrido[1,2-b:2′,1′-f][1,2,4]triazine-6,8-dione]
EC50 (MDCK, 48 h): > 8100 nM

COCCN1C(=O)c2c(O)c(=O)ccn2N2C(c3ccc(F)cc3)CCCC12 (single isomer, unassigned) [Compound 4B, 1-(4-fluorophenyl)-7-hydroxy-5-(2-methoxyethyl)-1,2,3,4,4a,5-hexahydrodipyrido[1,2-b:2′,1′-f][1,2,4]triazine-6,8-dione]
EC50: > 8100 nM

CN1C(=O)c2c(O)c(=O)ccn2N2C(c3cccc4ccccc34)CCCC12 (single isomer, unassigned) [Compound 5A, 7-hydroxy-5-methyl-1-(naphthalen-1-yl)-1,2,3,4,4a,5-hexahydrodipyrido[1,2-b:2′,1′-f][1,2,4]triazine-6,8-dione]
EC50 (MDCK, 48 h): 1530 nM

CN1C(=O)c2c(O)c(=O)ccn2N2C(c3cccc4ccccc34)CCCC12 (single isomer, unassigned) [Compound 5B, 7-hydroxy-5-methyl-1-(naphthalen-1-yl)-1,2,3,4,4a,5-hexahydrodipyrido[1,2-b:2′,1′-f][1,2,4]triazine-6,8-dione]
EC50: 1700 nM

CC1CC(c2ccccc2)N2C(C1)N(C)C(=O)c1c(O)c(=O)ccn12 (single isomer, unassigned) [Compound 6A, 7-hydroxy-3,5-dimethyl-1-phenyl-1,2,3,4,4a,5-hexahydrodipyrido[1,2-b:2′,1′-f][1,2,4]triazine-6,8-dione]
EC50: 372 nM

CC1CC(c2ccccc2)N2C(C1)N(C)C(=O)c1c(O)c(=O)ccn12 (single isomer, unassigned) [Compound 6B, 7-hydroxy-3,5-dimethyl-1-phenyl-1,2,3,4,4a,5-hexahydrodipyrido[1,2-b:2′,1′-f][1,2,4]triazine-6,8-dione]
EC50: 7760 nM

CN1C(=O)c2c(O)c(=O)ccn2N2C(c3c(F)cccc3F)CCCC12 (single isomer, unassigned) [Compound 7A, 1-(2,6-difluorophenyl)-7-hydroxy-5-methyl-1,2,3,4,4a,5-hexahydrodipyrido[1,2-b:2′,1′-f][1,2,4]triazine-6,8-dione]
EC50: > 8100 nM

CN1C(=O)c2c(O)c(=O)ccn2N2C(c3c(F)cccc3F)CCCC12 (single isomer, unassigned) [Compound 7B, 1-(2,6-difluorophenyl)-7-hydroxy-5-methyl-1,2,3,4,4a,5-hexahydrodipyrido[1,2-b:2′,1′-f][1,2,4]triazine-6,8-dione]
EC50: 256 nM

CN1C(=O)c2c(O)c(=O)ccn2N2C(c3ccccc3F)CCCC12 (single isomer, unassigned) [Compound 8A, 1-(2-fluorophenyl)-7-hydroxy-5-methyl-1,2,3,4,4a,5-hexahydrodipyrido[1,2-b:2′,1′-f][1,2,4]triazine-6,8-dione]
EC50: > 8100 nM

CN1C(=O)c2c(O)c(=O)ccn2N2C(c3ccccc3F)CCCC12 (single isomer, unassigned) [Compound 8B, 1-(2-fluorophenyl)-7-hydroxy-5-methyl-1,2,3,4,4a,5-hexahydrodipyrido[1,2-b:2′,1′-f][1,2,4]triazine-6,8-dione]
EC50: 65.6 nM

CN1C(=O)c2c(O)c(=O)ccn2N2C(c3ccccc3)C3CCC(C3)C12 (single isomer, unassigned) [Compound 9A, 4-hydroxy-6-methyl-11-phenyl-6a,7,8,9,10,11-hexahydro-3H-7,10-methanopyrido[1′,2′:1,6][1,2,4]triazino[2,3-a]azepine-3,5(6H)-dione]
EC50: 6210 nM

CN1C(=O)c2c(O)c(=O)ccn2N2C(c3ccccc3)C3CCC(C3)C12 (single isomer, unassigned) [Compound 9B, 4-hydroxy-6-methyl-11-phenyl-6a,7,8,9,10,11-hexahydro-3H-7,10-methanopyrido[1′,2′:1,6][1,2,4]triazino[2,3-a]azepine-3,5(6H)-dione]
EC50: 166 nM

CN1C(=O)c2c(O)c(=O)ccn2N2C(c3ccccc3)C3CCC(C3)C12 (single isomer, unassigned) [Compound 9C, 4-hydroxy-6-methyl-11-phenyl-6a,7,8,9,10,11-hexahydro-3H-7,10-methanopyrido[1′,2′:1,6][1,2,4]triazino[2,3-a]azepine-3,5(6H)-dione]
EC50: > 8100 nM

CN1C(=O)c2c(O)c(=O)ccn2N2C(c3ccccc3)C3CCC(C3)C12 (single isomer, unassigned) [Compound 9D, 4-hydroxy-6-methyl-11-phenyl-6a,7,8,9,10,11-hexahydro-3H-7,10-methanopyrido[1′,2′:1,6][1,2,4]triazino[2,3-a]azepine-3,5(6H)-dione]
EC50: > 8100 nM

CN1C(=O)c2c(O)c(=O)ccn2N2C(c3cccc(F)c3)CCCC12 (single isomer, unassigned) [Compound 10A, 1-(3-fluorophenyl)-7-hydroxy-5-methyl-1,2,3,4,4a,5-hexahydrodipyrido[1,2-b:2′,1′-f][1,2,4]triazine-6,8-dione]
EC50: 1610 nM

CN1C(=O)c2c(O)c(=O)ccn2N2C(c3cccc(F)c3)CCCC12 (single isomer, unassigned) [Compound 10B, 1-(3-fluorophenyl)-7-hydroxy-5-methyl-1,2,3,4,4a,5-hexahydrodipyrido[1,2-b:2′,1′-f][1,2,4]triazine-6,8-dione]
EC50: 86.5 nM
